Entries after “also recorded” stand apart in the source; their conditions may differ.
Assays:
[1] = system: MST1; assay: Proteolysis of in vitro translated 35S-methionine labelled MST1 by C2C12 lysates; assay type: biochemical, human; conditions: 35S-labelled MST1 incubated with lysates of inhibitor-treated C2C12 cells
Description: Transfection Assays. The complete open reading frame of the human MST1, [Genbank Accession No. gi|1117790] obtained from a clone bank collection (Stratagene) was inserted into the expression vector pcDNA3.1 Myc/His (Invitrogen). A constitutively active MST1 (MST1-act) was prepared as previously described (Megeney, L. A., et al., (1996) Genes Dev 10, 1173-1183). The integrity of both MST1 and MST1-act were confirmed by sequencing. The kinase activity of these protein products were verified by transient transfection into COS1 cells followed by immunoprecipitation and kinase analysis using Histone-H1 as the target substrate (see below). Transfections with MST1 and MST1-act into both COS1 and primary myoblasts were performed using Lipofectamine Plus (Gibco) as directed in the manufacturer's instructions.
In vitro translation and MST1 proteolysis. MST1-pcDNA3.1 Myc/His was in vitro transcribed and translated using a TnT T7 Coupled Wheat Germ Extract System (Promega). The labelling efficiency was verified by SDS-PAGE, Coomassie-staining and autoradiography. […] The proteolytic cleavage of MST1 was assessed by SDS-PAGE and autoradiography.
One kinase that was altered in activity co-migrated with a predicted pI (5.2) and molecular weight (36 kDa) consistent with Mammalian Sterile Twenty-like kinase (MST1). […]

[2] = system: CD1 neurosphere cells; assay: Annexin-V-PI flow cytometry of differentiating neurosphere cells; assay type: cell-based, mouse
Description: (§1) Neurospheres were sub-cultured no more than once per collection. The differentiation of neurospheres was initated by plating spheres on poly-L-ornithine coated plates in NeuroCult Differentiation Medium in the absence of bFGF, as per manufacturer's instructions. […] All cultures received fresh media and inhibitor every 24 h for the duration of the experiment. Neurospheres from caspase 3 null embryos (Fernando, P., et al., (2002) Proc Natl Acad Sci USA 99, 11025-11030) were cultured as described above.
Flow Cytometry: Annexin-V-propidium iodide (PI) analysis of apoptotic and nectrotic cells was performed using an Annexin-V-FLUOS staining kit (Roche, USA). Analyses were performed using a Beckman-Coulter ALTRA flow cytometer. To detect Annexin-V and PI positive cells, flow cytometric channels were gated using cells without stain, stained with PI alone and stained with Annexin-V alone. Cells that had dissociated from their neurosphere bodies were gently collected without excessive disruption of the sphere/cell body. These cells were chosen for flow cytometry analyses. Each sample was gated to control for cellular debris.
As in most developmental processes, a population of cells is required to undergo apoptosis prior to the differentiation of a separate pool of cells. Clearly, the inhibition of caspase 3 may adversely affect this process. To address this issue, we measured the degree of apoptosis that occurred during differentiation in caspase 3 inhibited and uninhibited cells using the specific caspase 3 peptide inhibitor zDEVD.fmk and Annexin V-propidium iodide (PI) staining coupled to cytometric analyses (FIG. 15). Annexin V detects cells that are either apoptotic or necrotic whereas propidium iodide is able to detect necrotic cells. Together, Annexin-V-PI analyses identify the population of cells that are apoptotic, i.e. Annexin-V positive/PI negative. To control for the heterogeneity of cells within neurospheres as described previously (Bez et al., (2003) Brain Res 993, 18-29), we performed our analyses on cells that had dissociated from the neurosphere. […]

[3] = system: clonally-derived CD1 neurospheres; assay: Neurite extensions / morphology of differentiating neurospheres; assay type: cell-based, mouse; conditions: differentiation media up to 5 d, 2.0 μM inhibitor, vs DMSO
Description: as §1
Immunocytochemistry: Neurospheres were collected at selected time points, fixed in 4% paraformaldehyde and prepared for immunostaining as previously described (Fernando, P., et al., (2002) Proc Natl Acad Sci USA 99, 11025-11030)). The primary antibody concentrations for anti-nestin, -GFAP, -MBP and -active caspase 3 (BioVision, USA) were titrated on wildtype CD1 neurospheres prior to their experimental use. These antibodies were visualized by counterstaining with either FITC or Cy3 conjugated secondary antibodies (Chemicon USA). Nuclei were localized with 4′,6-Diamidino-2 phenylindole (DAPI) (Sigma, USA). Cells were visualized using either an Axiovert 100 for transmission microscopy or Axioplan 2 for fluorescent microscopy (Zeiss, Germany) at selected magnifications. Captured images were processed using AxioVision Viewer 3.0 software.
Quantitation of Neurite Extensions: Neurites from differentiating neurospheres were estimated from a total of 6-8 neurospheres per condition over three independent experiments. To quantitated neuritis, the average diameter of an individual neurosphere was estimated from the vertical and horizontal distance. The number of extensions leaving the neurosphere body were then counted and an ratio of neurosphere extensions:average neurosphere diameter was calculated for each. All measurements including neurosphere diameter were evaluated using Scion Image.

Structure (SMILES): COC(=O)CC[C@H](NC(=O)[C@H](CC(=O)OC)NC(=O)OCc1ccccc1)C(=O)N[C@H](C(=O)N[C@@H](CC(=O)OC)C(=O)CF)C(C)C [z-DEVD.fmk]
- 36 kDa MST1 cleavage fragment [1]: not apparent
- 36 kDa MST1 cleavage fragment ([1]; listed as caspase-3 inhibitor): absent in caspase-3 inhibited samples
- Annexin-V positive/PI positive cell population ([2]; 12 h in differentiation media, cells dissociated from neurosphere): approximately 27%
- level of apoptosis (Annexin-V-PI) ([2]; 24 h in differentiation media): 33%
- effect on apoptosis during neurosphere differentiation ([2]; inhibited relative to uninhibited cells): did not affect apoptosis
- neurite extensions / morphological changes [3]: dramatic reduction in the formation of these projections; also recorded: absent

Source: patent US20060013804A1, “Modulation of stem cell differentiation by modulation of caspase-3 activity” (Ottawa Health Research Institute, priority 2002, published 2006)
